Tests used:
[1] = target: GcoA (Amycolatopsis sp., UniProt P0DPQ7, H210Q); test: Syringol binding to wild-type GcoA (KD)
Source text: The syringol binding mode can be modulated by active site engineering. Guaiacol assumes a productive orientation in the active site of GcoA due to the action of amino acid side chains that create a tight-fitting hydrophobic pocket. The closest contact is with GcoA-F169, which forms a hydrophobic interaction with the C6 carbon on the aromatic ring of guaiacol. […] We identified that the mutation of GcoA-F169 to a smaller residue may relieve the apparent steric clash between it and the bound ligand in the active site, allowing syringol to adopt a productive conformation. To test this hypothesis, GcoA-F169 was substituted with several alternative amino acids (A, S, H, V, I, and L) with the aim of introducing productive syringol turnover while retaining reactivity with guaiacol.

[2] = target: T1, GcoA-F169A and GcoB (Amycolatopsis sp., UniProt P0DPQ7, F169A/H210Q); test: Stoichiometric end-point analysis of reactants and products (HPLC, formaldehyde assay); type: biochemical; conditions: for Formaldehyde produced: 100 μM substrate, 210 μM O2, reaction to completion
T1 construct: GST (N, cleaved yes); made in house; host or cells: E. coli Rosetta 2 (DE3)
T1 sequence (P0DPQ7 whole entry F169A/H210Q): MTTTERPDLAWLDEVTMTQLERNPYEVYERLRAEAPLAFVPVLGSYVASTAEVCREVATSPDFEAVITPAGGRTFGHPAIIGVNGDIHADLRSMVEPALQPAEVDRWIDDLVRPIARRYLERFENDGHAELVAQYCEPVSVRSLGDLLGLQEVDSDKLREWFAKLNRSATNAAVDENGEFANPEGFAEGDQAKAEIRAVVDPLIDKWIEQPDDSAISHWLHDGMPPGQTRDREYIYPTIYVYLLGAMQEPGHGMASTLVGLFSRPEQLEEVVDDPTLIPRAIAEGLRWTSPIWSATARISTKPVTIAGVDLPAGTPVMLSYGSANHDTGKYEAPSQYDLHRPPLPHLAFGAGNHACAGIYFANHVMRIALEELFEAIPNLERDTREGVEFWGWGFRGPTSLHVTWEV
Description: FIG. 3 depicts quantitative analyses of substrate consumption and product generation indicate nearly complete coupling of NADH/O2 consumption to substrate O-demethylation for guaiacol, and progressively more uncoupling for syringol and 3MC. NADH (200 μM) and guaiacol, syringol, or 3MC (100 or 200 μM) were incubated in air with 0.2 μM GcoA-F169A and GcoB (each) (25 mM HEPES, 50 mM NaCl, pH 7.5, 25° C., 210 μM O2). Reactants and products were quantified when the UV/vis spectra ceased changing and the reaction deemed complete. The total NADH consumed is compared above to the amounts of formaldehyde and de-methylated aromatic compound produced. Pyrogallol, the O-demethylated product of 3MC, was not detected under any condition. Error bars represent ±1 standard deviation from three or more independent measurements.
Since both methoxy groups of syringol can potentially serve as substrates, we examined syringol turnover in a number of ways. Syringol (100 μM) was first incubated with NADH (200 μM) and excess dissolved O2 (210 μM), and the reaction with the GcoA-F169A mutant allowed to go to completion. As with the guaiacol reaction, all of the NADH and syringol were consumed (FIG. 3), implying that syringol undergoes two O-demethylations, producing 3MC and then pyrogallol (210 μM O2, 25 mM HEPES, 50 mM NaCl, pH 7, 25° C.).
The stoichiometric analysis was next repeated with NADH and syringol present in equal concentrations (200 μM each; 210 μM O2), conditions expected to permit at most half of the available methoxy groups to react. All of the NADH and 150±6 μM of syringol were consumed; 200±3 μM formaldehyde and 120±2 μM 3MC were generated (Table 1, FIG. 3).
Formaldehyde determination. A colorimetric assay using tryptophan can be used to quantify the amount of formaldehyde produced in F169 GcoA/B reactions with guaiacol, syringol, or 3MC. 0.2 μM each of F169 GcoA mutants and GcoB were dissolved in air-saturated buffer (25 mM HEPES, 50 mM NaCl) in a cuvette at pH 7.5, 25° C. 100 μg/mL catalase was added to each reaction to capture any H2O2 formed during the uncoupled reaction. Two hundred μM NADH was added and the background rate recorded. One hundred (guaiacol, syringol, or 3MC) or 200 (syringol) μM of substrate was then added and the reaction monitored until there was no more change, due to either substrate, NADH or O2 depletion, whichever occurred first. 200 μL of the reaction was then quenched by adding 200 μL of a 0.1% tryptophan solution in 50% ethanol and 200 μL of 90% sulfuric acid. Upon thorough mixing, 40 μL of 1% FeCl3 was added. The solution was then incubated in a heating block for 90 min at 70° C. After cooling, the absorbance was read at 575 nm and the concentration of formaldehyde was calculated by using ε575 nm=4.2 mM^−1 cm^−1, obtained with formaldehyde as a standard. A negative control included everything but the substrate and was used as a baseline.
Analyte analysis of the above end-point reactions (100 μM guaiacol, syringol, or 3MC, or 200 μM syringol) was performed on an Agilent 1100 LC system (Agilent Technologies) equipped with a G1315B diode array detector (DAD). Each sample and standard was injected at a volume of 10 μL onto a Symmetry C18 column 5 μm, 4.6×150 mm column (Waters). The column temperature was maintained at 30° C. and the buffers used to separate the analytes of interest was 0.01% TFA in water (A)/acetonitrile (B). The separation was carried out using a gradient program of: (A)=99% and (B)=1% at time t=0 min; (A)=99% and (B)=1% at time t=2 min, (A)=50% and (B)=50% at t=8 min; (A)=1% and (B)=99% at t=8.01 min; (A)=99% and (B)=1% at t=10.01 min; (A)=99% and (B)=1% at t=11 min. The flow rate was held constant at 1.5 mL min^−1, resulting in a run time of 11 minutes. DAD wavelengths of 210 and 325 nm were used for analysis of the analytes of interest. Standard curves were generated using 0-500 μM of guaiacol, syringol, 3MC, catechol, and pyrogallol. […]

[3] = 200 μM syringol, 200 μM NADH, 210 μM O2

Chain of GcoA (P0DPQ7 whole entry H210Q): as the sequence (P0DPQ7 whole entry F169A/H210Q) above, with A169F counted along it

**Q.** With COc1cccc(OC)c1O [syringol, 2,6-dimethoxyphenol] as the compound, how does the Kd [1] read?
**A.** Its Kd is 2800 ± 400 nM.

**Q.** What about the Formaldehyde produced ([2]; 200 μM NADH) of the same compound?
**A.** Its Formaldehyde produced is 170 ± 10 µM.

**Q.** What about the “Singly demethylated intermediate 3MC observed at end of reaction” value ([2]; 100 μM syringol, 200 μM NADH, 210 μM O2) of the same compound?
**A.** Its value is 50 ± 4 µM.

**Q.** And the 3MC generated [2, 3]?
**A.** Its 3MC generated is 120 ± 2 µM.

**Q.** And the Formaldehyde generated [2, 3]?
**A.** The Formaldehyde generated was 200 ± 3 µM.

**Q.** And the Syringol consumed [2, 3]?
**A.** The Syringol consumed was 150 ± 6 µM.

**Q.** What about the Pyrogallol detection ([2]; any of the conditions used) of the same compound?
**A.** The Pyrogallol detection was “not detected”.

**Q.** For COc1cccc(O)c1O [3MC, 3-methoxycatechol], which Formaldehyde produced ([2]; 200 μM NADH) is on record?
**A.** Its Formaldehyde produced is “approximately 100 μM”.

— patent US11208642B2, “Microbial syringol utilization” (Alliance for Sustainable Energy, LLC, priority 2018, dated 2021)
